Data reported in patent publication US20020055541A1, “Compositions containing hypotriglyceridemically active stilbenoids” (Shaman Pharmaceuticals, Inc., priority 2000, published 2002).

Key:
[1] = reported by Arichi et al., Chem. Pharm. Bull. 30(5) 1766-1770 (1982); cited from earlier work
[2] = reported by Inamori et al., Chem. Phar. Bull. 33(7):2904-09 (1985); cited from earlier work
[3] = Body weight in fat fed, STZ treated rats; format: in vivo, rat; settings: 250 mg/kg q.d., FIG. 3
Experimental: (§1) FIG. 3 is a line graph showing the mean body weight […] in fat fed, STZ treated rats administered with GELUCIRE™ vehicle only; and 3-hydroxy-4-(3-methyl-2-butenyl)-5-methoxystilbene-2-carboxylic acid (Compound A). -O- represents vehicle; and -▪- represents Compound A administered at 250 mg/kg q.d. Animals were administered the vehicle and compounds at 24, 48, 72 and 96 h, and […] were measured at 0, 30, 51, 54, 75 and 80 hours after the oral administration. All data points N=8. *P<0.05 (analysis of variance (ANOVA), one factor).
(§2) Male Sprague Dawley rats arrival from Charles River Laboratories, Hollister, Calif., were fed a high fat (20% by weight) diet (TD 78463) obtained from Harlan Teklad, Madison, Wis., which was stored at 4° C. prior to use. Administration of a high fed diet is a well-known method of inducing hypertriglyceridemia in rats.
(§3) Compound A formulations were prepared fresh daily. The appropriate amount of Compound A in GELUCIRE™ was administered by oral gavage at a volume of 2.5 ml/kg of body weight. Animals were fasted at 8:00 am each day.

[4] = Food consumption in fat fed, STZ treated rats; format: in vivo, rat; settings: 250 mg/kg q.d., FIG. 4
Experimental: as §1, with “FIG. 4” for “FIG. 3”, “mean food consumption” for “mean body weight”
as §2, §3

[5] = test system: fat fed, STZ treated male Sprague Dawley rats; experiment: Serum triglyceride levels in fat-fed STZ treated rats (model of hypertriglyceridemia); format: in vivo, rat
Source text: This example illustrates the effectiveness of the stilbenoids of formula (I) in reducing serum triglyceride levels in fat-fed STZ treated male Sprague Dawley rats, i.e., an art-recognized model of hypertriglyceridemia.
This example illustrates the effectiveness of the stilbenoids of formula (I), e.g. longistyline A-2-carboxylic acid (Compound A) in reducing serum triglyceride levels in fat fed, STZ treated male Sprague Dawley rats, i.e., an art recognized model of hypertriglyceridemia. […]
Blood samples from tail snips bleeds were collected six hours after the dose on day one, and three (3) and six (6) hours after the administration of the dose on days 2 through 4 into M brand (Becton Dickinson, Franklin Lakes, NJ) serum separator tubes, and centrifuged at 12,000 rpm for 10 minutes. Serum was removed and triglyceride levels were measured using enzymatic […] methods (M. W. McGowan, et al., Clin. Chem. 29, 538 (1983) and P Trinder, Ann. Clin. Biochem. 6, 24 (1969)) using Sigma Diagnostic Kits, Sigma Chemical Company, St. Louis, Mo.
Triglyceride levels are expressed as the mean +SEM. Data were analyzed by one-way analysis of variance (ANOVA), followed by post-hoc Fisher's protected least squares difference (PLSD) tests. […]

SMILES: OC[C@H]1OC(Oc2c(O)cc(O)cc2C=Cc2ccc(O)cc2)[C@H](O)[C@@H](O)[C@@H]1O (stereo partly drawn) [2,3,5,4′-tetrahydroxy stilbene-2-O-D-glucoside]
- Serum triglyceride levels [1]: reduce

SMILES: Oc1cc(O)cc(C=Cc2ccc(O)c(O)c2)c1 [3,3′,4,5′-tetrahydroxystilbene]
- Antifungal activity [2]: strong

SMILES: COc1cc(/C=C/c2ccccc2)c(C(=O)O)c(O)c1CC=C(C)C [Compound A, 3-hydroxy-4-(3-methyl-2-butenyl)-5-methoxystilbene-2-carboxylic acid]
- Gain in rat body weight over the course of treatment [3]: normal and similar among the treatment groups
- Food intake (daily mean food consumption) [4]: not effected by the treatments
- Serum triglyceride (TG) levels vs vehicle only, at each of the time points ([5]; 250 mg/kg body weight q.d. oral gavage in GELUCIRE vehicle, fat fed STZ rats, N=8, p<0.05, FIG. 2): significantly lower
- Mean TG levels vs GELUCIRE vehicle group, compared at individual sampling times ([5]; 250 mg/kg body weight q.d., from day 2 through the end of treatment): significantly lower

SMILES: OC[C@H]1O[C@@H](Oc2cc(O)cc(/C=C/c3ccc(O)cc3)c2)[C@H](O)[C@@H](O)[C@@H]1O [Piceid, 3,4′,5-trihydroxystilbene-3-O-β-D-glucopyranoside]
- Liver lipid levels [1]: lower
- Serum triglyceride levels [1]: lower
